Results: PubChem BioAssay AID2060609 (Molecular Pharmacology Branch, DTP, NCI, 2025)
One block for each molecule: values may come before it.

Test system: 855422-203-R-J1-PDC complex spheroids, viability
Test: Anticancer human tumor 855422-203-R-J1-PDC patient-derived bladder carcinoma cell line growth inhibition [CLK]
Conditions: for IC50: curve of first compound; for viability, T/C: stronger effect = lower value
Procedure, shortened: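 Multi-cell-type spheroids combined patient-derived tumor cells with HUVEC endothelial cells and human mesenchymal stem cells. Paired agents were dosed in half-log steps down from about clinical Cmax, or from 10 microM where Cmax was unknown.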

[1] = second compound 0.0316 µM, first compound 0.0316 µM
[2] = second compound 0.0316 µM, first compound 0.1 µM
[3] = second compound 0.0316 µM, first compound 0.316 µM
[4] = second compound 0.0316 µM, first compound 1 µM
[5] = second compound 0.0316 µM, first compound 3.16 µM
[6] = second compound 0.0316 µM, first compound 10 µM
[7] = second compound 0.1 µM, first compound 0.0316 µM
[8] = second compound 0.1 µM, first compound 0.1 µM
[9] = second compound 0.1 µM, first compound 0.316 µM
[10] = second compound 0.1 µM, first compound 1 µM
[11] = second compound 0.1 µM, first compound 3.16 µM
[12] = second compound 0.1 µM, first compound 10 µM
[13] = second compound 0.316 µM, first compound 0.0316 µM
[14] = second compound 0.316 µM, first compound 0.1 µM
[15] = second compound 0.316 µM, first compound 0.316 µM
[16] = second compound 0.316 µM, first compound 1 µM
[17] = second compound 0.316 µM, first compound 3.16 µM
[18] = second compound 0.316 µM, first compound 10 µM
[19] = second compound 1 µM, first compound 0.0316 µM
[20] = second compound 1 µM, first compound 0.1 µM
[21] = second compound 1 µM, first compound 0.316 µM
[22] = second compound 1 µM, first compound 1 µM
[23] = second compound 1 µM, first compound 3.16 µM
[24] = second compound 1 µM, first compound 10 µM
[25] = second compound 3.16 µM, first compound 0.0316 µM
[26] = second compound 3.16 µM, first compound 0.1 µM
[27] = second compound 3.16 µM, first compound 0.316 µM
[28] = second compound 3.16 µM, first compound 1 µM
[29] = second compound 3.16 µM, first compound 3.16 µM
[30] = second compound 3.16 µM, first compound 10 µM
[31] = second compound 10 µM, first compound 0.0316 µM
[32] = second compound 10 µM, first compound 0.1 µM
[33] = second compound 10 µM, first compound 0.316 µM
[34] = second compound 10 µM, first compound 1 µM
[35] = second compound 10 µM, first compound 3.16 µM
[36] = second compound 10 µM, first compound 10 µM
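Further: spheroids exposed to drugs for seven days before readout.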
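Wherever viability, T/C is given: 100% = DMSO vehicle control wells.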

IC50 (second compound 0.0316 µM): > 10000 nM
IC50 (second compound 0.1 µM): < 31.6 nM
IC50 (second compound 0.316 µM): < 31.6 nM
IC50 (second compound 1 µM): < 31.6 nM
IC50 (second compound 3.16 µM): < 31.6 nM
IC50 (second compound 10 µM): < 31.6 nM
SMILES: C=CC(=O)N1CCN(c2nc(=O)n(-c3c(C)ccnc3C(C)C)c3nc(-c4c(O)cccc4F)c(F)cc23)C(C)C1 (stereo not given) + CNC(=O)c1ccc(Nc2nc(OC3CCCC3)c3c(-c4ccc5nc(C)oc5c4)c[nH]c3n2)c(OC)c1
viability, T/C [1]: 78.8%
viability, T/C [2]: 91.5%
viability, T/C [3]: 104%
viability, T/C [4]: 103%
viability, T/C [5]: 179%
viability, T/C [6]: 127%
viability, T/C [7]: 47.5%
viability, T/C [8]: 50.9%
viability, T/C [9]: 45.8%
viability, T/C [10]: 41.6%
viability, T/C [11]: 43.5%
viability, T/C [12]: 23.9%
viability, T/C [13]: 21.1%
viability, T/C [14]: 19%
viability, T/C [15]: 21.8%
viability, T/C [16]: 27%
viability, T/C [17]: 22.7%
viability, T/C [18]: 23.4%
viability, T/C [19]: 21.2%
viability, T/C [20]: 17.7%
viability, T/C [21]: 21%
viability, T/C [22]: 22.5%
viability, T/C [23]: 21.5%
viability, T/C [24]: 19.4%
viability, T/C [25]: 16.2%
viability, T/C [26]: 18.3%
viability, T/C [27]: 18.6%
viability, T/C [28]: 18.9%
viability, T/C [29]: 17%
viability, T/C [30]: 14.1%
viability, T/C [31]: 19.4%
viability, T/C [32]: 17.1%
viability, T/C [33]: 19.5%
viability, T/C [34]: 29.2%
viability, T/C [35]: 17.6%
viability, T/C [36]: 16.7%

IC50 (second compound 0.0316 µM): 5680 nM
IC50 (second compound 0.1 µM): 1030 nM
IC50 (second compound 0.316 µM): < 31.6 nM
IC50 (second compound 1 µM): < 31.6 nM
IC50 (second compound 3.16 µM): < 31.6 nM
IC50 (second compound 10 µM): < 31.6 nM
SMILES: CCCS(=O)(=O)Nc1ccc(F)c(C(=O)c2c[nH]c3ncc(-c4ccc(Cl)cc4)cc23)c1F + CNC(=O)c1ccc(Nc2nc(OC3CCCC3)c3c(-c4ccc5nc(C)oc5c4)c[nH]c3n2)c(OC)c1
viability, T/C [1]: 90.8%
viability, T/C [2]: 79.9%
viability, T/C [3]: 112%
viability, T/C [4]: 92.2%
viability, T/C [5]: 114%
viability, T/C [6]: 3.65%
viability, T/C [7]: 50.6%
viability, T/C [8]: 52.7%
viability, T/C [9]: 48.5%
viability, T/C [10]: 49.6%
viability, T/C [11]: 46%
viability, T/C [12]: 6.89%
viability, T/C [13]: 23.8%
viability, T/C [14]: 23.8%
viability, T/C [15]: 19.8%
viability, T/C [16]: 19.9%
viability, T/C [17]: 21.4%
viability, T/C [18]: 5.35%
viability, T/C [19]: 17.7%
viability, T/C [20]: 20.9%
viability, T/C [21]: 17.9%
viability, T/C [22]: 20.2%
viability, T/C [23]: 16.9%
viability, T/C [24]: 4.43%
viability, T/C [25]: 22.2%
viability, T/C [26]: 14.9%
viability, T/C [27]: 18.7%
viability, T/C [28]: 15.1%
viability, T/C [29]: 19.5%
viability, T/C [30]: 4.41%
viability, T/C [31]: 18.2%
viability, T/C [32]: 19.6%
viability, T/C [33]: 20%
viability, T/C [34]: 17.6%
viability, T/C [35]: 15.1%
viability, T/C [36]: 5.26%

The next lines start with the molecule.

SMILES: COc1ccc([C@@H](O)c2cc(-c3ncnc4cc(N5CCOCC5)ccc34)c(F)cc2Cl)nn1 + CN1CCN(c2cc(C(=O)Nc3cc4cc(-c5cnn(C)c5)ccc4cn3)ccn2)CC1
IC50 (second compound 0.0316 µM): 5350 nM
IC50 (second compound 0.1 µM): 5050 nM
IC50 (second compound 0.316 µM): < 31.6 nM
IC50 (second compound 1 µM): < 31.6 nM
IC50 (second compound 3.16 µM): < 31.6 nM
IC50 (second compound 10 µM): < 31.6 nM
viability, T/C [1]: 104%
viability, T/C [2]: 118%
viability, T/C [3]: 91.3%
viability, T/C [4]: 94%
viability, T/C [5]: 66%
viability, T/C [6]: 29.9%
viability, T/C [7]: 84.7%
viability, T/C [8]: 96.1%
viability, T/C [9]: 89.2%
viability, T/C [10]: 86%
viability, T/C [11]: 64.6%
viability, T/C [12]: 28.7%
viability, T/C [13]: 6.51%
viability, T/C [14]: 8.74%
viability, T/C [15]: 5.23%
viability, T/C [16]: 4.62%
viability, T/C [17]: 5.93%
viability, T/C [18]: 5.44%
viability, T/C [19]: 0.14%
viability, T/C [20]: 0.19%
viability, T/C [21]: 0.74%
viability, T/C [22]: 0.11%
viability, T/C [23]: 2.55%
viability, T/C [24]: 0.09%
viability, T/C [25]: 1.7%
viability, T/C [26]: 0.33%
viability, T/C [27]: 1.52%
viability, T/C [28]: 0.2%
viability, T/C [29]: 0.33%
viability, T/C [30]: 0.13%
viability, T/C [31]: 0.6%
viability, T/C [32]: 0.27%
viability, T/C [33]: 0.24%
viability, T/C [34]: 0.24%
viability, T/C [35]: 0.26%
viability, T/C [36]: 0.19%

SMILES: COc1cccc2c1C(=O)c1c(O)c3c(c(O)c1C2=O)CC(O)(C(=O)CO)CC3OC1CC(N)C(O)C(C)O1 (stereo not given) + CN1CCN(c2cc(C(=O)Nc3cc4cc(-c5cnn(C)c5)ccc4cn3)ccn2)CC1
IC50 (second compound 0.0316 µM): < 31.6 nM
IC50 (second compound 0.1 µM): < 31.6 nM
IC50 (second compound 0.316 µM): < 31.6 nM
IC50 (second compound 1 µM): < 31.6 nM
IC50 (second compound 3.16 µM): < 31.6 nM
IC50 (second compound 10 µM): < 31.6 nM
viability, T/C [1]: 8.97%
viability, T/C [2]: 3.16%
viability, T/C [3]: 0.95%
viability, T/C [4]: 0.46%
viability, T/C [5]: 0.59%
viability, T/C [6]: 1.01%
viability, T/C [7]: 8.75%
viability, T/C [8]: 1.14%
viability, T/C [9]: 0.71%
viability, T/C [10]: 1.31%
viability, T/C [11]: 0.35%
viability, T/C [12]: 0.34%
viability, T/C [13]: 1.19%
viability, T/C [14]: 1.5%
viability, T/C [15]: 0.36%
viability, T/C [16]: 0.28%
viability, T/C [17]: 0.35%
viability, T/C [18]: 0.27%
viability, T/C [19]: 0.21%
viability, T/C [20]: 0.29%
viability, T/C [21]: 0.23%
viability, T/C [22]: 0.31%
viability, T/C [23]: 0.39%
viability, T/C [24]: 0.81%
viability, T/C [25]: 0.29%
viability, T/C [26]: 0.57%
viability, T/C [27]: 0.22%
viability, T/C [28]: 0.22%
viability, T/C [29]: 0.42%
viability, T/C [30]: 0.22%
viability, T/C [31]: 0.09%
viability, T/C [32]: 0.17%
viability, T/C [33]: 1.68%
viability, T/C [34]: 0.13%
viability, T/C [35]: 0.76%
viability, T/C [36]: 1.02%

SMILES: COC1C=CCC(C)C(C)S(=O)(=O)NC(=O)c2ccc3c(c2)N(CC2CCC21)CC1(CCCc2cc(Cl)ccc21)CO3 (stereo not given) + CNC(=O)c1ccc(Nc2nc(OC3CCCC3)c3c(-c4ccc5nc(C)oc5c4)c[nH]c3n2)c(OC)c1
IC50 (second compound 0.0316 µM): 7390 nM
IC50 (second compound 0.1 µM): > 10000 nM
IC50 (second compound 0.316 µM): < 31.6 nM
IC50 (second compound 1 µM): < 31.6 nM
IC50 (second compound 3.16 µM): < 31.6 nM
IC50 (second compound 10 µM): < 31.6 nM
viability, T/C [1]: 96%
viability, T/C [2]: 105%
viability, T/C [3]: 122%
viability, T/C [4]: 132%
viability, T/C [5]: 151%
viability, T/C [6]: 24.7%
viability, T/C [7]: 53.6%
viability, T/C [8]: 63.6%
viability, T/C [9]: 54.1%
viability, T/C [10]: 77.3%
viability, T/C [11]: 105%
viability, T/C [12]: 33.3%
viability, T/C [13]: 20%
viability, T/C [14]: 23.7%
viability, T/C [15]: 20.7%
viability, T/C [16]: 17.2%
viability, T/C [17]: 34.1%
viability, T/C [18]: 22%
viability, T/C [19]: 19.8%
viability, T/C [20]: 17.3%
viability, T/C [21]: 18.2%
viability, T/C [22]: 19.5%
viability, T/C [23]: 21.9%
viability, T/C [24]: 29%
viability, T/C [25]: 15.8%
viability, T/C [26]: 18.1%
viability, T/C [27]: 16.4%
viability, T/C [28]: 15.1%
viability, T/C [29]: 20.8%
viability, T/C [30]: 23.3%
viability, T/C [31]: 17.7%
viability, T/C [32]: 18.6%
viability, T/C [33]: 17.9%
viability, T/C [34]: 17.4%
viability, T/C [35]: 17.9%
viability, T/C [36]: 23.3%
